The source of these data is patent publication US8318668B2 (Trustees of Tufts College, priority 2005, dated 2012).

Square brackets hold non-standard residues; d marks the D form. Ends that are not written are not given here. Peptide text beside a SMILES is read from it. Tle = CC(C)(C)[C@H](N)C(=O)O

The target in data set [1] is rat DPP IV (Rattus norvegicus, UniProt P14740). Put plainly: Digestion of model hexapeptides by rat DPP IV (LCMS). The note with it: for half-life: pH 8. The text has this:
The data were fit to a single phase exponential equation.
DPP-IV cleaves the N-terminal dipeptide from peptides with either Pro or Ala in the penultimate position (P2).

Data set [2] has as its system db mice. Put plainly: Time course of blood glucose lowering in db mice. Particulars: 8 μg injected; for duration of action (in words): db / diabetic mice.
Description: At each time point the percent change in blood glucose was determined for 10 mice and the average change±SEM is plotted.
At each time point, the percentage change in blood glucose was determined for 10 mice and the average change±SEM is plotted.
In an exemplary embodiment, for treatment of the mice with a regimen including a peptide hormone analog or control, sub-orbital sinus blood samples are taken before and at some time (e.g., 60 minutes) after dosing of each animal. Blood glucose measurements can be made by any of several conventional techniques, such as using a glucose meter. The blood glucose levels of the control and peptide hormone analog dosed animals are compared
In data set [3] the test system is db mice. Nature of the data set: Dose response of blood glucose lowering in diabetic (db) mice. It is filed as in vivo. The note with it: blood glucose 60 minutes post injection. The text has this: The data were fit to a sigmoidal dose response curve.
Data set [4] addresses human GLP-1 receptor (Homo sapiens, UniProt P43220). The note with it: peptide concentration 300 nM.
Description: Peptides were tested for agonist activity at a concentration of 300 nM. The data represent the mean±SEM with n=4.
Data values∓SEM are plotted and fit to a sigmoidal dose-response curve.

Chain of rat DPP IV (P14740 whole entry): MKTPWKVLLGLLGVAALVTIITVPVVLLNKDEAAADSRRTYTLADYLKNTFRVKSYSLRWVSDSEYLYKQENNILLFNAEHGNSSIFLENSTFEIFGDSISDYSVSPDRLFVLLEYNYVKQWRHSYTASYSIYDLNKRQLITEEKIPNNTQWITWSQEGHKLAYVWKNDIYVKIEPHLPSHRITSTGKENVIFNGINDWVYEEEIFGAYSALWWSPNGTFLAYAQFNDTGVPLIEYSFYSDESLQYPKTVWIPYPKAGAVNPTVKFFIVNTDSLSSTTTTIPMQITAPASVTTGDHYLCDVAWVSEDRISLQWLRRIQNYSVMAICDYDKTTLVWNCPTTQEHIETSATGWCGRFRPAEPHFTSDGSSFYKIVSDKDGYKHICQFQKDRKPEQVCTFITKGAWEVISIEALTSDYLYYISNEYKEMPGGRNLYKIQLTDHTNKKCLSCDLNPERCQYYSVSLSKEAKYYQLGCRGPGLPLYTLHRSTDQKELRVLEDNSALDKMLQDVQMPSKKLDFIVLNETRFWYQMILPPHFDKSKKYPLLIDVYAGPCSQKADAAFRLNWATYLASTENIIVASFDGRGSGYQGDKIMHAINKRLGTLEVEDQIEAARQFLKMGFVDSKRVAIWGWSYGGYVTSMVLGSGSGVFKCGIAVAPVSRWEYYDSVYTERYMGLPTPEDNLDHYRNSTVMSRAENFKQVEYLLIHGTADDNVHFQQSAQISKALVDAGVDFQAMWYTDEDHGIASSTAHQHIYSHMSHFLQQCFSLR
Chain of human GLP-1 receptor (P43220 24-463): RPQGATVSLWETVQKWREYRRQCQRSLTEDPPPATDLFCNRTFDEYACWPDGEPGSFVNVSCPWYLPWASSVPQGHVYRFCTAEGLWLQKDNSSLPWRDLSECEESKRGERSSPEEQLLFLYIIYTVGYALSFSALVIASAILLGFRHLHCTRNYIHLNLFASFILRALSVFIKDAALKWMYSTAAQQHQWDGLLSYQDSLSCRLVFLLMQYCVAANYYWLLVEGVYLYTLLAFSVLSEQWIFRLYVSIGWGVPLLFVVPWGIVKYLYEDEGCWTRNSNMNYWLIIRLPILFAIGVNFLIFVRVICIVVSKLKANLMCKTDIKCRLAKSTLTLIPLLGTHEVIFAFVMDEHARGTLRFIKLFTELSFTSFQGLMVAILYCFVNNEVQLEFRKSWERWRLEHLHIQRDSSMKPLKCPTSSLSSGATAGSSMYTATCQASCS

For the compound `C[C@H](N)C(=O)N1CCC[C@H]1C(=O)N[C@H](C(=O)N[C@@H](CO)C(=O)N[C@@H](Cc1c[nH]c2ccccc12)C(=O)N[C@@H](CO)C(N)=O)C(C)(C)C` [Ala-Pro-Tle-Ser-Trp-Ser-NH2] (H-AP[Tle]SWS-NH2), the “cleavage by rat DPP IV (in words)” value in data set [1] was “No reaction was observed”.
As to `CC[C@H](C)[C@H](NC(=O)[C@H](Cc1ccccc1)NC(=O)[C@H](CCC(=O)O)NC(=O)[C@H](CCCCN)NC(=O)[C@H](C)NC(=O)[C@H](C)NC(=O)[C@H](CCC(N)=O)NC(=O)CNC(=O)[C@H](CCC(=O)O)NC(=O)[C@H](CC(C)C)NC(=O)[C@H](Cc1ccc(O)cc1)NC(=O)[C@H](CO)NC(=O)[C@H](CO)NC(=O)[C@@H](NC(=O)[C@H](CC(=O)O)NC(=O)[C@H](CO)NC(=O)[C@@H](NC(=O)[C@H](Cc1ccccc1)NC(=O)[C@@H](NC(=O)CNC(=O)[C@H](CCC(=O)O)NC(=O)[C@H](C)NC(=O)[C@@H](N)Cc1c[nH]cn1)[C@@H](C)O)[C@@H](C)O)C(C)C)C(=O)N[C@@H](C)C(=O)N[C@@H](Cc1c[nH]c2ccccc12)C(=O)N[C@@H](CC(C)C)C(=O)N[C@H](C(=O)N[C@@H](CCCCN)C(=O)NCC(=O)N[C@@H](CCCNC(=N)N)C(N)=O)C(C)C` [GLP-1, reference compound], the “duration of action (in words)” value in data set [2] is listed as “largely gone by 60 minutes”.
For `CC[C@H](C)[C@H](NC(=O)[C@H](Cc1ccccc1)NC(=O)[C@H](CCC(=O)O)NC(=O)[C@H](CCCCN)NC(=O)[C@H](C)NC(=O)[C@H](C)NC(=O)[C@H](CCC(N)=O)NC(=O)CNC(=O)[C@H](CCC(=O)O)NC(=O)[C@H](CC(C)C)NC(=O)[C@H](Cc1ccc(O)cc1)NC(=O)[C@H](CO)NC(=O)[C@H](CO)NC(=O)[C@@H](NC(=O)[C@H](CC(=O)O)NC(=O)[C@H](CO)NC(=O)[C@@H](NC(=O)[C@H](Cc1ccccc1)NC(=O)[C@@H](NC(=O)CNC(=O)[C@@H](NC(=O)[C@H](C)NC(=O)[C@@H](N)Cc1c[nH]cn1)C(C)(C)C(=O)O)[C@@H](C)O)[C@@H](C)O)C(C)C)C(=O)N[C@@H](C)C(=O)N[C@@H](Cc1c[nH]c2ccccc12)C(=O)N[C@@H](CC(C)C)C(=O)N[C@H](C(=O)N[C@@H](CCCCN)C(=O)NCC(=O)N[C@@H](CCCNC(=N)N)C(N)=O)C(C)C` [TPA1B4, HAXGTFTSDVSSYLEGQAAKEFIAWLVKGR-NH2], in data set [3], the “95% confidence interval of EC50 of glucose lowering effect” value fell in the range of 0.1 to 1.92 µg and the “EC50 of glucose lowering effect” value was 0.4 µg. Moreover, the “amount of GLP-1 receptor activation as measured by cAMP production” value in data set [4] was “the same”. In data set [2] (db mice), the “blood glucose level reached (in words)” value is listed as “within the range observed for normal mice”, the “duration of blood glucose lowering effect” value is “at least 90 minutes” and the “time of return of blood glucose to hyperglycemic values” is at most 4 h.
In data set [1], “APISWS-NH2 [Ala-Pro-Ile-Ser-Trp-Ser-NH2]” registered a half-life of 41 min.
In data set [1], “APLSWS-NH2 [Ala-Pro-Leu-Ser-Trp-Ser-NH2]” gave a half-life of 49 min.
With “HAXGTFTSDVSSYLEGQAAKEFIAWLVKGRZ-NH2 (HAXGTFTSDVSSYLEGQAAKEFIAWLVKGRX; β-dimethyl Asp, biphenylalanine, C-terminal amide) [DGS69]”, the “duration of action (in words)” value in data set [2] was “significantly increased the duration”.

By half-life is commonly meant how long it takes for the measured level to halve.
